Measured values published in patent publication US20090203877A1, “X-RAY-DENSE CONJUGATE” (Eberhard-Karls-Universitaet Tuebingen Universitaetsklinkum, priority 2006, published 2009).
Entries after “also recorded” stand apart in the source; their conditions may differ.

Experiments:
Solubility = assay type: physicochemical; details: 260 μM
[1] = cited from earlier work
[2] = test system: human malignant U373 glioma cells; experiment: Cell viability / cell death (MTT test, propidium iodide, annexin-V-Alexa 568 binding, FACS scatter morphology); details: 260 μM in 0.1% DMSO/PBS, 20 min, substance alone
Experimental: Human malignant U373-glioma cells were grown to 70% confluency in RPMI-1640 Ready Mix Medium containing L-Glutamine and 10% FBS-Gold (PAA laboratories, Pasching, Austria) at 37° C., 5% CO2 (vol/vol), in 4-well-plates (NUNC, Wiesbaden, Germany) with about 300,000 cells pro well. […] After this, the cells were washed three times with buffer and then incubated with Ready Mix Medium again. Cell viability was then assessed by the addition of methyl-thiazoyl-tetrazolium (MTT) salt (Sigma-Aldrich, Germany) at a concentration of 15 mg/ml. After 20 minutes, the production of formazan was investigated. When blue formazan granules were detected, propidium iodine (PI) was added to the medium (1 μM PI; Molecular Probes, Eugene, Oreg., USA) to detect cells with damaged cell membranes. […] Pictures were taken with a 3-CCD color video camera (MC3254P, Sony, Japan) and the Axiovision Software (Carl Zeiss, Jena, Germany). The intensity of cell fluorescence was recorded at the exposure time necessary for the production of the fluorescence images.
After imaging, Accutase™ (PAA laboratories, Pasching, Austria) was added to the wells to achieve detachment of the cells for further FACS analysis. Fluorescence was measured in a Becton Dickinson FACSCalibur. A total of 20,000 events per sample were analyzed. The investigations were performed in triplicate.
A sample of cells from each Eppendorf tube was subjected to the MTT test (described under 1.4) to determine microscopically whether the cells were viable. In vitro CT of the cell pellets was performed with a Somatom Sensation 16 (Siemens) which is used for routine clinical investigations.
Cells were incubated for 20 minutes with each of the conjugates dissolved in 0.1% DMSO/PBS at 260 μm. The cells were also incubated with TIBA and both of the non-TIBA-containing conjugates (3 and 4) separately in 0.1% DMSO/OBS at 260 μm. Both TIBA and the conjugates were dissolved in 0.1% DMSO/PBS at 260 μm for incubation due to the insolubility of TIBA (but not the conjugates) in pure PBS. As controls, the cells were incubated with PBS alone, 0.1% DMSO/PBS alone, and TIBA alone (260 μm in 0.1% DMSO/PBS).
The detection of phosphatidyl serine in the outer membrane leaflet of apoptotic cells was performed with the Annexin-V-Alexa™-568-reagent according to manufacturer's protocol (Roche Molecular Biochemicals, Indianapolis, USA). The confocal laser-scanning microscopy was performed on an inverted LSM 510 laser-scanning microscope (Carl Zeiss, Jena, Germany) (objectives: LD Achroplan 40×0.6, Plan Neofluar 20×0.50, 40×0.75). For fluorescence excitation, the 488 nm line of an argon-ion laser and the […] line of a helium-neon laser with appropriate beam splitters and barrier filters were used for FITC and Alexa respectively. Superimposed images of FITC- and Alexa-stained samples were created by overlaying coincident views. All measurements were performed on living, non-fixed cells.
Human malignant LN18 and U373 glioma cells were cultivated in four-well plates (NUNC, Wiesbaden, Germany) (about 300,000 cells per well) as described under 1.5. […] The cells were also coincubated either with CIBA, FIBA or TBPI as well as the NLS-FITC conjugate 3 (each 260 μM). As a control cells were used which were only incubated either with CIBA, FIBA or TBPI (260 μM in PBS) alone. After the incubation the cells were washed three times with PBS and in the following again incubated in Ready Mix Medium. The FITC-labelled conjugates and the Alexa-Annexin for the detection of phosphatidylserine as a signal of the cell death were localized with the confocal laser microscopy (CLSM) as in 1.6.1. All measurements were performed on living cells.

[3] = test system: human malignant U373 glioma cells; experiment: Computer tomography, signal density of cell pellets; assay type: cell-based; details: 260 μM, 20 min
Experimental: For CT and FACS human U373 glioma cells were grown under the same conditions in 75 cm^2 culture flasks (Corning Costar, Bodenheim, Germany) (70% confluency). Accutase™ (PAA laboratories, Pasching, Austria) was added to achieve detachment of the cells which were harvested and subsequently aliquoted into Eppendorf tubes (6×10^6 cells per tube). As in the investigations performed by fluorescence microscopy, the cells in the first tube served as a control (PBS only). The cells in the other tubes were incubated with 260 μM Ultravist, 260 μM TIBA in PBS and 26 μM, 260 μM and 2.6 mM conjugates 1-4 in PBS. After a 20 minute incubation period at 37° C. in an atmosphere of 5% CO2, the cells were washed three times in PBS and centrifuged at 800 rpm for 5 minutes.
The inner ear spiral CT protocol consisted of: tube voltage 120 KV, effective mAs 550, time of imaging TI: 1.5, SL 0.75/0.75/4.5, FOV: 50 0/52, kernel: U70, window: intervertebral disc.
3D-images were obtained using InSpace Software (Syngo CT 2006G) (Siemens AG, Erlangen, Germany).
After an incubation of 20 minutes at 37° C./5% CO2 the cells were washed three times with PBS buffer and centrifuged at 800 rpm (rounds per minute) for 5 minutes. The fluorescence was measured in Becton Dickinson FACSCalibur as described under 1.4. The computer tomography was performed as described under 1.5.1. The examinations were repeated two times. […]
An Orbita CT spiral was used: tube voltage 120 KV, effective mAs 550, time of imaging TI: 1.5, SL 0.75/0.75/4.5, FOV: 50 0/52, GT: 0.0, kernel: U70, window: intervertebral disc. 3D images were made with the InSpace Software (Syngo CT 2006G) (Siemens AG, Erlangen, Germany). […]

O=C(O)c1cc(I)cc(I)c1I [TIBA, 2,3,5-triiodobenzoic acid, reference compound]
solubility in pure PBS (Solubility): insolubility
solubility in water [1]: does not dissolve in water
binding of annexin-V-Alexa 568 reagent (phosphatidyl serine) / cytotoxic effects [2]: did not result in binding; also recorded: did not appear to produce any cytotoxic effects
CT signal density of cell pellets [3]: only low signal density values; also recorded: did not result in any increase in signal density
